In US20100004234A1, “SPECIFIC KINASE INHIBITORS” (Kosan Biosciences Incorporated, priority 2004, published 2010):
Where two headings read alike, the source gives them in different places. Blank lines part the entries; values can stand above or below the molecule they belong to.

How the values were obtained:
ERK2 [1] = target: ERK2 (UniProt P28482); type: biochemical; parameters: "the target Cys 172 residue
Protocol: (§1) In either case, the time dependent inactivation can be dampened by the presence of a competing substrate, in this case ATP.
(§2) For covalent inhibitors, plots of log (activity) versus time provide apparent first-order rate constants (kobsd) of enzyme activity loss. If these assays are performed at varying concentrations of inhibitor, a series of first-order plots is obtained and kobsd obtained at each inhibitor concentration. […] Such molecules may be competitive inhibitors but should not show time-dependent inactivation.
(§3) Inhibition progress curve analysis was performed using continuous, colorimetric, or fluorimetric assays. All experiments were done at 1 mM ATP, with the exception of KDR (at 5 mM ATP).
(§4) MEK1 assays were performed using pre-incubation experiments with radioactive [^32P]ATP and filter binding of product. All other kinases were analyzed using progress curve analysis from a continuous spectrophotometric assay.

[2] = test system: SKOV3 (ovarian cancer cell line, wild-type B-Raf); test: Cell proliferation assay; type: cell-based; conditions: Homo sapiens, SK-OV-3; Table 7; SKOV3 ovarian cancer, wild-type B-Raf; read-out: Cell Line IC50 SKOV3
Protocol: (§5) In one illustrative method, cells are treated with various concentrations of the inhibitor in 96 well plates, incubated at 37° C./5% CO2 for three days, and analyzed using the Cell Titer Glo kit (Promega).
(§6) COLO829 is a human melanoma cell line. HT29 is a human colon cancer cell line. Both cell lines have a V600E B-Raf mutation. SKOV3 is an ovarian cancer cell line having wild-type B-Raf. EKR2 (extra-cellular signal regulated kinase 2) is a kinase in the Ras/B-Raf MAP kinase cascade pathway.

[3] = test system: HT29 (Human colon, B-Raf V599E); test: Cell proliferation assay (Cell Titer Glo); type: cell-based
Protocol: as §5, §6

[4] = test system: COLO829 (Human melanoma, B-Raf V599E); test: Cell proliferation assay (Cell Titer Glo); type: cell-based
Protocol: as §5, §6

rat MEK1 = rat MEK1 (Rattus norvegicus, UniProt Q01986); conditions: cited from earlier work
rat MEK1, sequence (Q01986 whole entry): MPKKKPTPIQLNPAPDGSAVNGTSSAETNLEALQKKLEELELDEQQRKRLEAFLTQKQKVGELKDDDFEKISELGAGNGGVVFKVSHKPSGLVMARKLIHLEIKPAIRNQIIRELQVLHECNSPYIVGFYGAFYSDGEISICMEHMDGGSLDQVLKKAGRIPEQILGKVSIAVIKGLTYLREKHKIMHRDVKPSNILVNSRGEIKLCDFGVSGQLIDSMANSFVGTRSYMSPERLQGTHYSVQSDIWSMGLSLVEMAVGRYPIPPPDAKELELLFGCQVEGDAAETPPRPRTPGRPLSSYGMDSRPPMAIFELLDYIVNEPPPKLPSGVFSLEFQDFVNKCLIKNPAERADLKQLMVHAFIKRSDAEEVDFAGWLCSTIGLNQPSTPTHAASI

ERK2 [5] = target: ERK2 (UniProt P28482); type: biochemical; parameters: Ki; other: ERK2; 1 mM ATP; kinact; T1/2; kinact/Ki; "the target Cys 172 residue; conditions: ERK2
Protocol: as §1, §2, §3, §4

[6] = test system: A375 (Human melanoma, B-Raf V599E); test: Cell proliferation assay (Cell Titer Glo); type: cell-based
Protocol: as §5

[7] = test system: A549 (NSCLC, B-Raf wild-type); test: Cell proliferation assay (Cell Titer Glo); type: cell-based
Protocol: as §5

[8] = test system: WM266-4 (Human melanoma, B-Raf V599D); test: Cell proliferation assay (Cell Titer Glo); type: cell-based
Protocol: as §5

[9] = test system: DU4475 (Human breast, B-Raf V599E); test: Cell proliferation assay (Cell Titer Glo); type: cell-based
Protocol: as §5

MEK1 [10] = target: T1, MEK1 (Homo sapiens, UniProt Q02750); test: Time-dependent kinase inhibition kinetics (pre-incubation, [32P]ATP filter binding); type: biochemical
Protocol: Typically, one measures the increase in inhibition of protein kinase activity in the presence of inhibitor over time. In one method, aliquots of a “pre-incubation” reaction mixture containing enzyme and inhibitor are assayed for activity (initial velocities) over time; increased inhibition or decreased initial velocities will be observed over time as the Michael adduct forms (Walsh, C, Enzyme Reaction Mechanisms, W.H. Freeman & Co., 1979, pp 86-94). In a second method, the time dependent loss of activity is measured as “progress curves” that measure and analyze product formed (e.g. ADP) versus time (Morrison & Walsh, Adv. Enzymol Relat Areas Mol. Biol. 1988, 61, 201-301). In either case, the time dependent inactivation can be dampened by the presence of a competing substrate, in this case ATP.
MEK1 and many other protein kinases that can be targets of the compounds useful in the methods of the invention can be obtained commercially (Invitrogen; Carlsbad, Calif.) or prepared using standard molecular biology techniques. After activation by phosphorylation, they are assayed for their ability to phosphorylate a target kinase or surrogate substrate. For example, MEK1 can be assayed in a mixture containing MEK1 (30 nM) and ERK1 (2 μM), [γ-^32P]ATP (10 uM) and MgCl2 in Mops buffer pH 7.6. Phosphorylation can be measured by isolating [γ-^32P]-phosphorylated ERK1 on phosphocellulose paper, and counting radioactive product. Alternatively, a coupled enzyme system may be used in which a product of the kinase reaction, such as ADP, is measured by analysis with a secondary system that converts that product (e.g. ADP) to an easily measurable entity (e.g. NADH); often, such coupled systems can be measured by convenient spectrophotometry assays.
To measure time-dependent inhibition using the “pre-incubation method”, MEK1 (or other kinase) is incubated with varying amounts of the lactone inhibitor; […]. Aliquots are removed at various times, added to a solution containing substrates [γ-^32P]ATP, ERK1 (or other substrate), and the other components of the reaction, and initial rates are determined as a measure of remaining enzyme activity.
For covalent inhibitors, plots of log (activity) versus time provide apparent first-order rate constants (kobsd) of enzyme activity loss. If these assays are performed at varying concentrations of inhibitor, a series of first-order plots is obtained and kobsd obtained at each inhibitor concentration. To measure time-dependent inhibition using the “progress-curve method” (see references cited above and Kuzmic et al., Methods Enzymol 2004; 383: 366-81), ERK (or other kinase) is treated with varying amounts of the lactone inhibitor, and the formation of ADP is measured continuously by a coupled assay. […] Such molecules may be competitive inhibitors but should not show time-dependent inactivation.
Those of skill in the art will recognize that within the set of compounds useful in the methods of the invention, significant variability in specificity can be achieved, allowing one to identify optimal compounds for different applications. Inhibition progress curve analysis was performed using continuous, colorimetric, or fluorimetric assays. All experiments were done at 1 mM ATP, with the exception of KDR (at 5 mM ATP).
as §4

BCCs in Ptc+/− mice = conditions: topical; cited from earlier work
[11] = test system: ASZ001 (Basal cell carcinoma); test: Cell proliferation assay (Cell Titer Glo); type: cell-based
Protocol: as §5

[12] = test system: ERK1/2 activation in human T cells; conditions: tested at 0.3 to 3 μM; cited from earlier work
[13] = test system: MV4-11 (Human leukemia Flt3-ITD); test: Cell proliferation assay (Cell Titer Glo); type: cell-based
Protocol: as §5

[14] = test system: P815 (Mouse mastocytoma, KIT D814Y); test: Cell proliferation assay (Cell Titer Glo); type: cell-based
Protocol: as §5

[15] = test system: EOL-1 (Human leukemia FLP1L1-PDGFRA); test: Cell proliferation assay (Cell Titer Glo); type: cell-based
Protocol: as §5

MEK1 [16] = target: T1, MEK1; conditions: cited from earlier work
PKA, PKC or Raf = conditions: cited from earlier work
panel of 120 kinases = conditions: panel of some 120 kinases; cited from earlier work
[17] = HT-29, Table 7, HT29 human colon cancer, V600E B-Raf, read-out: Cell Line IC50 HT29
[18] = COLO-829, Table 7, COLO829 human melanoma, V600E B-Raf, read-out: Cell Line IC50 COLO829
[19] = A375 (Human melanoma, B-Raf V599E), Tables 1 and 4, read-out: Kinase Inhibitor IC50
[20] = A549 (NSCLC, B-Raf wild-type), Tables 1 and 4, read-out: Kinase Inhibitor IC50
[21] = WM266-4 (Human melanoma, B-Raf V599D), Tables 1 and 4, read-out: Kinase Inhibitor IC50
[22] = DU4475 (Human breast, B-Raf V599E), Tables 1 and 4, read-out: Kinase Inhibitor IC50
[23] = HT29 (Human colon, B-Raf V599E), Tables 1 and 4, read-out: Kinase Inhibitor IC50

ERK2 Inhibition kinact. (ERK2 [1]): 3.3 ± 0.4 × 10^−3 sec^−1
Ki (ERK2 [1]; Table 7; read-out: ERK2 Inhibition Ki): 2.2 ± 0.4 µM
IC50 [2]: 1.8 µM
IC50 [3, 17]: 0.1 µM
IC50 [4, 18]: 0.038 µM
Molecule: C[C@H]1C/C=C\C(=O)[C@@H](O)[C@@H](O)C[C@H]2O[C@@H]2c2cc(O)cc(O)c2C(=O)O1 [Compound II, 4-O-desmethylhypothemycin]

Molecule: COc1cc(O)c2c(c1)/C=C/C[C@H](O)[C@H](O)C(=O)/C=C\C[C@H](C)OC2=O [(5Z)-7-oxozeaneol]
IC50 (rat MEK1): 0.411 µM

Molecule: 5,6-Dihydrohypothemycin
kinact/Ki (ERK2 [5]): None
kinact (ERK2 [5]; 1 mM ATP): None
Ki (ERK2 [5]; 1 mM ATP, read-out: Ki): 28 µM
IC50 [6, 19]: > 50 µM
IC50 [7, 20]: 107 µM
IC50 [8, 21]: 15 µM
IC50 [9, 22]: 46 µM
IC50 [3, 23]: 15 µM
IC50 ([4]; COLO829 (Human melanoma, B-Raf V599E), Tables 1 and 4, read-out: Kinase Inhibitor IC50): 3.7 µM
kinact/Ki (MEK1 [10]): None
Ki (MEK1 [10]; 1 mM ATP): 3 µM
kinact (MEK1 [10]; 1 mM ATP): None

IC50 ([11]; ASZ001 (Basal cell carcinoma), read-out: Kinase Inhibitor IC50): 10 µM
IC50 ([11]; BCC cell line ASZ001 in culture, read-out: IC50): ~10 µM
Molecule: CCOC(=O)c1ccc(C#Cc2ccc3c(c2)C(C)(C)CCS3)nc1 [Tazarotene]
inhibition of development of BCCs (BCCs in Ptc+/− mice): > 85%

Molecule: C[C@H]1CCCC(=O)CCC/C=C/c2cc(O)cc(O)c2C(=O)O1 [zearalenone]
inhibition of the activation of ERK1/2 [12]: not

Molecule: CNC(=O)c1cc(Oc2ccc(NC(=O)Nc3ccc(Cl)c(C(F)(F)F)c3)cc2)ccn1 [BAY 43-9006, Sorafenib]
IC50 ([13]; Homo sapiens, MV4-11, read-out: Kinase Inhibitor IC50): 0.0023 µM
IC50 ([6]; Homo sapiens, A-375, read-out: Kinase Inhibitor IC50): 4.3 µM
GI50 ([14]; Mus musculus, P815): 0.31 µM
IC50 ([14]; Mus musculus, P815, read-out: Kinase Inhibitor IC50): 0.31 µM
IC50 ([7]; Homo sapiens, A549, read-out: Kinase Inhibitor IC50): 5.5 µM
IC50 ([8]; Homo sapiens, WM 266-4, read-out: Kinase Inhibitor IC50): 5.4 µM
IC50 ([15]; Homo sapiens, EOL1, read-out: Kinase Inhibitor IC50): 0.00023 µM
IC50 ([9]; Homo sapiens, DU-4475, read-out: Kinase Inhibitor IC50): 3.6 µM
IC50 ([3]; Homo sapiens, HT-29, read-out: Kinase Inhibitor IC50): 4.7 µM
GI50 ([4]; Homo sapiens, COLO-829): 6 µM
IC50 ([4]; Homo sapiens, COLO-829, read-out: Kinase Inhibitor IC50): 6 µM

Molecule: COc1cc(O)c2c(c1)CCC[C@H](O)[C@H](O)C(=O)/C=C\C[C@H](C)OC2=O [L-783,277]
reduction of the IC50 value for MEK1 by pre-incubation (MEK1 [16]; 60 min. pre-incubation): 10 fold
IC50 (MEK1 [16]; MEK1): 0.004 µM
inhibition of PKA, PKC or Raf (PKA, PKC or Raf): not

IC50 [6, 19]: 43 µM
IC50 [7, 20]: 48 µM
IC50 [8, 21]: 21 µM
IC50 [3, 23]: 5.5 µM
Molecule: COc1cccc(-c2cc(=O)c3ccccc3o2)c1N [PD 98059]
IC50 [9, 22]: 56 µM

GI50 ([13]; Homo sapiens, MV4-11, AML (FLT3 ITD) cell line MV-4-11, read-out: GI50): 0.012 µM
IC50 ([13]; MV4-11 (Human leukemia Flt3-ITD), read-out: Kinase Inhibitor IC50): 0.01 µM
IC50 ([6]; A-375, A375 (Human melanoma, B-Raf V599E), Tables 1 and 4, read-out: Kinase Inhibitor IC50): 5.4 µM
IC50 ([14]; P815 (Mouse mastocytoma, KIT D814Y), read-out: Kinase Inhibitor IC50): 0.32 µM
GI50 ([14]; mouse mastocytoma cell line P815, constitutively active cKIT (D814Y), read-out: GI50): 0.32 µM
IC50 ([8]; WM 266-4, WM266-4 (Human melanoma, B-Raf V599D), Tables 1 and 4, read-out: Kinase Inhibitor IC50): 8.2 µM
IC50 ([15]; EOL1, EOL-1 (Human leukemia FLP1L1-PDGFRA), read-out: Kinase Inhibitor IC50): 0.0017 µM
IC50 ([3]; HT-29, HT29 (Human colon, B-Raf V599E), Tables 1 and 4, read-out: Kinase Inhibitor IC50): 4.2 µM
IC50 ([4]; COLO-829, COLO829 (Human melanoma, B-Raf V599E), Tables 1 and 4, read-out: Kinase Inhibitor IC50): 7.1 µM
GI50 ([4]; Homo sapiens, COLO-829, melanoma cell line COLO829, read-out: GI50): 7.1 µM
Molecule: CCN(CC)CCNC(=O)c1c(C)[nH]c(/C=C2\C(=O)Nc3ccc(F)cc32)c1C [SU11248]
number of kinases inhibited (panel of 120 kinases): ~79
IC50 ([9]; DU-4475, DU4475 (Human breast, B-Raf V599E), Tables 1 and 4, read-out: Kinase Inhibitor IC50): 4 µM

Molecule: C[C@H]1C/C=C\C(=O)[C@@H](O)[C@@H](O)C[C@H]2O[C@@H]2c2cc(OCC3CCCN(C)C3)cc(O)c2C(=O)O1 (stereo partly shown) [V]
ERK2 Inhibition kinact. (ERK2 [1]; Table 7): 1 ± 0.1 × 10^−3 sec^−1
Ki (ERK2 [1]; read-out: ERK2 Inhibition Ki; Table 7): 0.94 ± 0.58 µM
IC50 [2]: 15 µM
IC50 [3, 17]: 0.6 µM
IC50 [4, 18]: 0.079 µM
